According to PMC6152226, “Composition and Antioxidant, Antienzymatic and Antimicrobial Activities of Volatile Molecules from Spanish Salvia lavandulifolia (Vahl) Essential Oils” (Molecules : A Journal of Synthetic Chemistry and Natural …, 2017):
Converted amounts (≈) assume the structure as drawn. Read-outs that look alike come from different tables or passages of the source.

Legend:
[1] = biological target: T1, LOX (Glycine max, UniProt P08170); assay: LOX inhibition assay; assay type: biochemical, Glycine max (soybean)
T1 construct: purchased Sigma-Aldrich
T1 sequence (P08170 whole entry): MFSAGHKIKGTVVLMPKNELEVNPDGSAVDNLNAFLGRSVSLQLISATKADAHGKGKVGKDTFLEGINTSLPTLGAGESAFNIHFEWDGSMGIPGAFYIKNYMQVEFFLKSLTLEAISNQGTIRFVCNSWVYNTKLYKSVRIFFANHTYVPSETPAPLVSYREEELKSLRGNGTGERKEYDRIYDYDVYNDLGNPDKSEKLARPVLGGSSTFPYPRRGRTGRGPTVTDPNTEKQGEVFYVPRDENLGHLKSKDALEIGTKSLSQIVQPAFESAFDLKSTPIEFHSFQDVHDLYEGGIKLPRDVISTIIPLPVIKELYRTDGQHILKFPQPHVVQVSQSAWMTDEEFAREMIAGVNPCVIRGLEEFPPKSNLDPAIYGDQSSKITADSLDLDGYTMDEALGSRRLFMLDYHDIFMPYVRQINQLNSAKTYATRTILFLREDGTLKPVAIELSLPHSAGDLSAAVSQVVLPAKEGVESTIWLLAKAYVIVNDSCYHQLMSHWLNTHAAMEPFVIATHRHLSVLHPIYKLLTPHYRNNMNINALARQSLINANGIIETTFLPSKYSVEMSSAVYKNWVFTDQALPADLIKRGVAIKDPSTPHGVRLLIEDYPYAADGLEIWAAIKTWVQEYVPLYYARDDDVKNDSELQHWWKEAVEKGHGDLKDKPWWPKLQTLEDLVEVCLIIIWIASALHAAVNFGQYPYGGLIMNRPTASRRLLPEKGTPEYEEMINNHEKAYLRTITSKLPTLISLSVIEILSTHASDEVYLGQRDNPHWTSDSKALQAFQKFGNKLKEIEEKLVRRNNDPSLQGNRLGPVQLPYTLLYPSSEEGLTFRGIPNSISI
Experimental: A LOX preparation from Glycine max (soybean) was acquired from Sigma-Aldrich. LOX inhibitory activity was determined as previously reported, based on the absorption at 234 nm of the hydroperoxyde conjugated dienes (ε = 25,000 M^−1 cm^−1), which are generated from the oxidation of linoleic acid in the presence of oxygen and LOX. This assay was carried out on a double beam Lambda 35 spectrophotometer (PerkinElmer, Madrid, Spain) with the UV-Winlab software, at 25 °C.
(§1) The DI in both antienzymatic assays were calculated using Equation (1):(1) DI (%)= ν0−νi/ν0 × 100 where v0 and v1 are the steady state rates without and with inhibitor, respectively. The inhibitions of LOX were reported as DI at 150 µg/mL of each SlEO. […] To calculate the IC50 values, data of DI (%) of seven different concentrations of each SlEO were plotted and fitted by non-linear regression according to Equation (2) using Sigma Plot software (systatsoftware.com) (Figure S6). The inhibitions of LOX and AChE by individual compounds were reported as IC50 or DI, depending on their inhibition capacities and solubilities.
(§2) (2) DI (%)= DImax [I]0/IC50+ [I]0

[2] = system: Candida albicans ATCC 10231; assay: Broth microdilution MIC and MFC; assay type: cell-based
Experimental: (§3) The following test microorganisms used in this work were acquired from Sigma-Aldrich: Pseudomonas aeruginosa ATCC 9027, Escherichia coli ATCC 8739, Staphylococcus aureus ATCC 6538, and Candida albicans ATCC 10231. The stock cultures were preserved in TSB or YPD with 15% glycerol, for bacteria and yeast cells, respectively, at −80 °C. Isolated colonies from an 18- to 24-h agar plate were transferred to MHB for bacteria and RPMI-1640 for C. albicans.
(§4) MIC were determined using the broth microdilution method in 96-well microplates, according to the M07-A10 [69] standard for bacteria and the M27-A3 [70] for Candida. Briefly, two-fold dilutions of a 40 µL/mL SlEOs were prepared to obtain a final concentration range of 0.08–20 µL/mL with 0.5% Tween®80 and 2.5% DMSO. The antimicrobial activities of main compounds were also tested in the concentration range of 0.12–15 mM with 0.5% Tween®80 and 2.5% DMSO as solvent. The final strain concentration was 5 × 10^5 CFU/mL in MHB for the bacteria and 0.5−2.5 × 10^3 in RPMI-1640 for the yeast. These plates were incubated for 24 h for bacteria and 48 h for Candida, both at 35 ± 1 °C, under aerobic conditions on a plate shaker at 100 rpm. Streptomycin (0.06–8.00 µg/mL) and fluconazole (0.13–16 µg/mL) were used as reference antibacterial and antifungal compound, respectively. […] MIC is defined as the lowest concentration of EO or individual compound with no visible growth of microorganisms, at the end of the incubation period. […] All determinations were carried out in triplicate.

[3] = Reducing power (RdP) method; conditions: individual compounds; maximum assay concentration 100 mM
Experimental: (§5) Five antioxidant methods were performed with SlEOs and their main individual compounds in triplicate. In the oxygen radical absorbance capacity (ORAC) assay, peroxyl radicals are produced by 2,2′-Azobis(2-methylpropionamidine) dihydrochloride (AAPH), which reacts with fluorescein giving a non-fluorescent compound [61]. The antioxidants are able to scavenge these peroxyl radicals. Trolox was used as the reference antioxidant. The 2,2-diphenyl-1-picrylhydrazyl (DPPH) and 2,2′-azino-bis(3-ethylbenzothiazoline-6-sulphonic acid) (ABTS) methods measure the bleaching produced by the reduction of the coloured DPPH and ABTS radicals. Trolox was used as the reference antioxidant. The RdP method measure the ability to reduce ferric ions, according to the method of Oyaizu. Ascorbic acid was the reference antioxidant used in this method. The ChP method measured the ability to chelate Fe^2+ ion, following the method of Miguel et al.. EDTA was used as reference antioxidant. The SlEOs were diluted in 100% ethanol in the DPPH, ABTS, RdP and ChP methods, whereas in the ORAC method, SlEOs were diluted in 15% ethanol to obtain a final concentration of 5% ethanol in the reaction medium. All measurements were made at the end-point of the reaction, except in the ORAC method (Figure S5).

[4] = Oxygen radical absorbance capacity (ORAC) assay; conditions: individual compounds, maximum assay concentration 100 mM
Experimental: as §5

[5] = DPPH radical method; conditions: individual compounds; maximum assay concentration 100 mM
Experimental: as §5

[6] = Chelating power (ChP) method; conditions: individual compounds; maximum assay concentration 100 mM
Experimental: as §5

[7] = system: Staphylococcus aureus ATCC 6538; assay: Broth microdilution MIC and MBC; assay type: cell-based
Experimental: as §3, §4

[8] = system: Escherichia coli ATCC 8739; assay: Broth microdilution MIC and MBC; assay type: cell-based
Experimental: as §3, §4

[9] = ABTS radical method; conditions: individual compounds; maximum assay concentration 100 mM
Experimental: as §5

[10] = biological target: T2, AChE VI-S (Electrophorus electricus, UniProt O42275); assay: biochemical
T2 construct: purchased Sigma-Aldrich
T2 sequence (O42275 24-633): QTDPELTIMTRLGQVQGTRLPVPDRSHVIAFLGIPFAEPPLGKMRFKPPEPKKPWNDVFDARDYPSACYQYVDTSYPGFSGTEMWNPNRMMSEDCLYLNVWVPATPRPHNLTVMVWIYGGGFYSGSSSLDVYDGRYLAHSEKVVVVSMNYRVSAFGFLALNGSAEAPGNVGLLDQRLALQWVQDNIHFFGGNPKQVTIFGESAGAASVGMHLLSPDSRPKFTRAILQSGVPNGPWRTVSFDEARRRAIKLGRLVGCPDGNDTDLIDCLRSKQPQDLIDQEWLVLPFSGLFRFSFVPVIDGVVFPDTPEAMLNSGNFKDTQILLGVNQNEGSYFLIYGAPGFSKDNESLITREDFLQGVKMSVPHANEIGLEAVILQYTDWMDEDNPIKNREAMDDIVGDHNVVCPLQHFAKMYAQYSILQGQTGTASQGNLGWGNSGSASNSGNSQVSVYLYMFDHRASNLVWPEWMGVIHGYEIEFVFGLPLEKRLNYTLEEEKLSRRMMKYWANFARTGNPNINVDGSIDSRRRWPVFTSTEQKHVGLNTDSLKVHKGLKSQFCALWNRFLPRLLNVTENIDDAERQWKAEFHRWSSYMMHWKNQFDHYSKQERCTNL
Experimental: AChE VI-S from Electrophorus electricus was purchased from Sigma-Aldrich. AChE inhibitory activity was measured in triplicate using a 96-well microplate reader at 25 °C, according to Ellman’s method. This enzyme hydrolyzes acetylthiocholine to acetate and thiocholine, which reacts with 5,5-dithio-bis-(2-nitrobenzoic acid) (DTNB) producing a coloured compound with absorbance at 412 nm. The reaction was measured for 10 min at 25 °C, using a 96-well microplate reader. SlEOs were diluted in 15% ethanol, to obtain a final concentration of 5% ethanol in the reaction medium.
as §1, §2

Compound	IC50 [1]	MIC ([2]; ATCC10231, 48 h, read-out: MIC)	MFC ([2]; ATCC10231, read-out: MFC)	RdP [3]	ORAC [4]	DPPH [5]	ChP [6]	MIC ([7]; ATCC6538, 24 h, read-out: MIC)	MBC ([7]; ATCC6538, read-out: MBC)	MIC ([8]; ATCC8739, 24 h, read-out: MIC)	MBC ([8]; ATCC8739, read-out: MBC)	ABTS [9]	other results
CC(=O)OC1CC2CCC1(C)C2(C)C (stereo not shown) [Bornyl acetate]	0.38 mM	> 2900 µg/mL	> 2900 µg/mL	N/D (Activity lower than 0.05 units at a maximum assay concentration of 100 mM)	N/D (Activity lower than 0.05 units at a maximum assay concentration of 100 mM)	N/D (Activity lower than 0.05 units at a maximum assay concentration of 100 mM)	N/D (Activity lower than 0.05 units at a maximum assay concentration of 100 mM)	2900 µg/mL	> 2900 µg/mL	> 2900 µg/mL	> 2900 µg/mL	N/D (Activity lower than 0.05 units at a maximum assay concentration of 100 mM)	
C=C1C2CCC(C2)C1(C)C (stereo not shown) [Camphene]				0.5 ± 0.0 µmol AAE/mmol X	N/D (Activity lower than 0.05 units at a maximum assay concentration of 100 mM)	N/D (Activity lower than 0.05 units at a maximum assay concentration of 100 mM)	1.6 ± 0.1 µmol EDTAE/mmol X					0.1 ± 0.0 µmol TE/mmol X	MFC ([2]; ATCC10231): > 2000 µg/mL; MIC ([2]; ATCC10231, 48 h): > 2000 µg/mL; concentration at which 15% inhibition of AChE reached ([10]; IC50 not calculable due to low water solubility): 42.4 ± 3.7 µg/mL; MBC ([7]; ATCC6538): > 2000 µg/mL; MIC ([7]; ATCC6538, 24 h): > 2000 µg/mL; MBC ([8]; ATCC8739): > 2000 µg/mL; MIC ([8]; ATCC8739, 24 h): > 2000 µg/mL
CC12CCC(CC1=O)C2(C)C (stereo not shown) [Camphor]	2.74 mM	> 2300 µg/mL	> 2300 µg/mL	N/D (Activity lower than 0.05 units at a maximum assay concentration of 100 mM)	N/D (Activity lower than 0.05 units at a maximum assay concentration of 100 mM)	N/D (Activity lower than 0.05 units at a maximum assay concentration of 100 mM)	N/D (Activity lower than 0.05 units at a maximum assay concentration of 100 mM)	> 2300 µg/mL	> 2300 µg/mL	> 2300 µg/mL	> 2300 µg/mL	N/D (Activity lower than 0.05 units at a maximum assay concentration of 100 mM)	ORAC ([4]; listed as camphor): did not show any ORAC antioxidant activity
C=C(C)[C@H]1CC=C(C)CC1 [Limonene]				N/D (Activity lower than 0.05 units at a maximum assay concentration of 100 mM)	128.0 ± 10.8 µmol TE/mmol X	N/D (Activity lower than 0.05 units at a maximum assay concentration of 100 mM)	5.9 ± 0.4 µmol EDTAE/mmol X					0.6 ± 0.0 µmol TE/mmol X	IC50LOX [1]: 116.1 ± 3.3 µg/mL (≈ 0.852 mM); MFC [2]: 1000 µg/mL (≈ 7.34 mM); MIC ([2]; 48 h): 1000 µg/mL (≈ 7.34 mM); MBC [7]: 300 µg/mL (≈ 2.2 mM); MIC ([7]; 24 h): 300 µg/mL (≈ 2.2 mM); MBC [8]: 2000 µg/mL (≈ 14.7 mM); MIC ([8]; 24 h): 2000 µg/mL (≈ 14.7 mM)
C=CC(C)(O)CCC=C(C)C (stereo not shown) [Linalool]	3.35 mM	2300 µg/mL (≈ 14.9 mM)	2300 µg/mL (≈ 14.9 mM)	N/D (Activity lower than 0.05 units at a maximum assay concentration of 100 mM)	341.9 ± 18.5 µmol TE/mmol X	N/D (Activity lower than 0.05 units at a maximum assay concentration of 100 mM)	96.9 ± 5.8 µmol EDTAE/mmol X	600 µg/mL (≈ 3.89 mM)	1100 µg/mL (≈ 7.13 mM)	1100 µg/mL (≈ 7.13 mM)	2300 µg/mL (≈ 14.9 mM)	0.1 ± 0.0 µmol TE/mmol X	
CC1=CCC2CC1C2(C)C (stereo not drawn) [α-Pinene]		500 µg/mL (≈ 3.67 mM)	500 µg/mL (≈ 3.67 mM)	N/D (Activity lower than 0.05 units at a maximum assay concentration of 100 mM)	N/D (Activity lower than 0.05 units at a maximum assay concentration of 100 mM)	N/D (Activity lower than 0.05 units at a maximum assay concentration of 100 mM)	16.6 ± 1.1 µmol EDTAE/mmol X	2100 µg/mL (≈ 15.4 mM)	> 2100 µg/mL	500 µg/mL (≈ 3.67 mM)	1000 µg/mL (≈ 7.34 mM)	N/D (Activity lower than 0.05 units at a maximum assay concentration of 100 mM)	IC50 [10]: 3.27 mM
CC1=CC[C@@H](C(C)(C)O)CC1 [α-Terpineol]		> 2400 µg/mL	> 2400 µg/mL	N/D (Activity lower than 0.05 units at a maximum assay concentration of 100 mM)	310.0 ± 16.6 µmol TE/mmol X	N/D (Activity lower than 0.05 units at a maximum assay concentration of 100 mM)	4.9 ± 0.3 µmol EDTAE/mmol X	600 µg/mL (≈ 3.89 mM)	1100 µg/mL (≈ 7.13 mM)	2400 µg/mL (≈ 15.6 mM)	2400 µg/mL (≈ 15.6 mM)	0.2 ± 0.0 µmol TE/mmol X	DI (%) of LOX ([1]; at 514.2 µg/mL, could not reach 50% inhibition): 17.4 ± 0.2%
